Measured values: ChEMBL document CHEMBL5046228 (Eur J Med Chem, 2022)

How the values were obtained:
[1] = molecular target: Epidermal growth factor receptor (Homo sapiens, UniProt P00533, EX19DEL); test: Inhibition of EGFR del19 (unknown origin) using flurogenic substrate in presence of ATP by HTRF assay
[2] = Selectivity index, ratio of IC50 Inhibition of wild type EGFR (unknown origin) to IC50 for Inhibition of EGFR T790M/C797S double mutant (unknown origin)
NCI-H1975 [3] = test: cells; format: functional, cell-based; details: Homo sapiens, NCI-H1975, 72 h
NCI-H1299 [4] = test: Induction of cell cycle arrest in human NCI-H1299 cells assessed as accumulation at G2/M phase at 0.02 uM after 36 hrs by PI staining based flow cytometry analysis (reference value: 5.6%); format: functional
NCI-H1299 [5] = test: Induction of cell cycle arrest in human NCI-H1299 cells assessed as accumulation at S phase at 0.02 uM after 36 hrs by PI staining based flow cytometry analysis (reference value: 24.8%); format: functional
NCI-H1299 [6] = test: Induction of cell cycle arrest in human NCI-H1299 cells assessed as accumulation at G0/G1 phase at 0.1 uM after 36 hrs by PI staining based flow cytometry analysis (reference value: 70.2%); format: functional
NCI-H1299 [7] = test: Induction of cell cycle arrest in human NCI-H1299 cells assessed as accumulation at G2/M phase at 0.1 uM after 36 hrs by PI staining based flow cytometry analysis (reference value: 5.6%); format: functional
NCI-H1299 [8] = test: Induction of cell cycle arrest in human NCI-H1299 cells assessed as accumulation at S phase at 0.1 uM after 36 hrs by PI staining based flow cytometry analysis (reference value: 24.8%); format: functional
NCI-H1299 [9] = test: Induction of cell cycle arrest in human NCI-H1299 cells assessed as accumulation at G0/G1 phase at 0.5 uM after 36 hrs by PI staining based flow cytometry analysis (reference value: 70.2%); format: functional
NCI-H1299 [10] = test: Induction of cell cycle arrest in human NCI-H1299 cells assessed as accumulation at S phase at 2.5 uM after 36 hrs by PI staining based flow cytometry analysis (reference value: 24.8%); format: functional
NCI-H1975 [11] = test: Induction of cell cycle arrest in human NCI-H1975 cells assessed as accumulation at S phase at 0.02 uM after 36 hrs by PI staining based flow cytometry analysis (reference value: 32.7 %); format: functional
NCI-H1975 [12] = test: Induction of cell cycle arrest in human NCI-H1975 cells assessed as accumulation at G2/M phase at 0.1 uM after 36 hrs by PI staining based flow cytometry analysis (reference value: 43.1%); format: functional
NCI-H1975 [13] = test: Induction of cell cycle arrest in human NCI-H1975 cells assessed as accumulation at G0/G1 phase at 2.5 uM after 36 hrs by PI staining based flow cytometry analysis (reference value: 24.2%); format: functional
NCI-H1975 [14] = test: Induction of cell cycle arrest in human NCI-H1975 cells assessed as accumulation at G2/M phase at 2.5 uM after 36 hrs by PI staining based flow cytometry analysis (reference value: 43.1%); format: functional
NCI-H1299 [15] = test: Induction of apoptosis in human NCI-H1299 cells assessed as increase in viable cells at 0.02 uM after 36 hrs by annexin-V-FITC/PI staining based flow cytometric analysis (reference value: 94.1%); format: functional
NCI-H1299 [16] = test: Induction of apoptosis in human NCI-H1299 cells assessed as increase in early apoptotic cells at 0.02 uM after 36 hrs by annexin-V-FITC/PI staining based flow cytometric analysis (reference value: 0.79%); format: functional
NCI-H1299 [17] = test: Induction of apoptosis in human NCI-H1299 cells assessed as increase in viable cells at 0.1 uM after 36 hrs by annexin-V-FITC/PI staining based flow cytometric analysis (reference value: 94.1%); format: functional
NCI-H1299 [18] = test: Induction of apoptosis in human NCI-H1299 cells assessed as increase in necrotic cells at 0.1 uM after 36 hrs by annexin-V-FITC/PI staining based flow cytometric analysis (reference value: 0.75%); format: functional
NCI-H1299 [19] = test: Induction of apoptosis in human NCI-H1299 cells assessed as increase in early apoptotic cells at 0.5 uM after 36 hrs by annexin-V-FITC/PI staining based flow cytometric analysis (reference value: 0.79%); format: functional
NCI-H1299 [20] = test: Induction of apoptosis in human NCI-H1299 cells assessed as increase in late apoptotic cells at 0.5 uM after 36 hrs by annexin-V-FITC/PI staining based flow cytometric analysis (reference value: 4.39%); format: functional
NCI-H1299 [21] = test: Induction of apoptosis in human NCI-H1299 cells assessed as increase in necrotic cells at 0.5 uM after 36 hrs by annexin-V-FITC/PI staining based flow cytometric analysis (reference value: 0.75%); format: functional
NCI-H1299 [22] = test: Induction of apoptosis in human NCI-H1299 cells assessed as increase in viable cells at 2.5 uM after 36 hrs by annexin-V-FITC/PI staining based flow cytometric analysis (reference value: 94.1%); format: functional
NCI-H1299 [23] = test: Induction of apoptosis in human NCI-H1299 cells assessed as increase in early apoptotic cells at 2.5 uM after 36 hrs by annexin-V-FITC/PI staining based flow cytometric analysis (reference value: 0.79%); format: functional
NCI-H1299 [24] = test: Induction of apoptosis in human NCI-H1299 cells assessed as increase in late apoptotic cells at 2.5 uM after 36 hrs by annexin-V-FITC/PI staining based flow cytometric analysis (reference value: 4.39%); format: functional
NCI-H1975 [25] = test: Induction of apoptosis in human NCI-H1975 cells assessed as increase in late apoptotic cells at 0.02 uM after 36 hrs by annexin-V-FITC/PI staining based flow cytometric analysis (reference value: 3.85%); format: functional
NCI-H1975 [26] = test: Induction of apoptosis in human NCI-H1975 cells assessed as increase in necrotic cells at 0.02 uM after 36 hrs by annexin-V-FITC/PI staining based flow cytometric analysis (reference value: 0.35%); format: functional
NCI-H1975 [27] = test: Induction of apoptosis in human NCI-H1975 cells assessed as increase in late apoptotic cells at 0.1 uM after 36 hrs by annexin-V-FITC/PI staining based flow cytometric analysis (reference value: 3.85%); format: functional
NCI-H1975 [28] = test: Induction of apoptosis in human NCI-H1975 cells assessed as increase in early apoptotic cells at 0.5 uM after 36 hrs by annexin-V-FITC/PI staining based flow cytometric analysis (reference value: 1.24%); format: functional
NCI-H1975 [29] = test: Induction of apoptosis in human NCI-H1975 cells assessed as increase in late apoptotic cells at 0.5 uM after 36 hrs by annexin-V-FITC/PI staining based flow cytometric analysis (reference value: 3.85%); format: functional
NCI-H1975 [30] = test: Induction of apoptosis in human NCI-H1975 cells assessed as increase in early apoptotic cells at 2.5 uM after 36 hrs by annexin-V-FITC/PI staining based flow cytometric analysis (reference value: 1.24%); format: functional
in vitro [31] = details: human
in vitro [32] = details: human; remark: listed apart in the source

Epidermal growth factor receptor, sequence (P00533 whole entry, looked up, stated change not applied): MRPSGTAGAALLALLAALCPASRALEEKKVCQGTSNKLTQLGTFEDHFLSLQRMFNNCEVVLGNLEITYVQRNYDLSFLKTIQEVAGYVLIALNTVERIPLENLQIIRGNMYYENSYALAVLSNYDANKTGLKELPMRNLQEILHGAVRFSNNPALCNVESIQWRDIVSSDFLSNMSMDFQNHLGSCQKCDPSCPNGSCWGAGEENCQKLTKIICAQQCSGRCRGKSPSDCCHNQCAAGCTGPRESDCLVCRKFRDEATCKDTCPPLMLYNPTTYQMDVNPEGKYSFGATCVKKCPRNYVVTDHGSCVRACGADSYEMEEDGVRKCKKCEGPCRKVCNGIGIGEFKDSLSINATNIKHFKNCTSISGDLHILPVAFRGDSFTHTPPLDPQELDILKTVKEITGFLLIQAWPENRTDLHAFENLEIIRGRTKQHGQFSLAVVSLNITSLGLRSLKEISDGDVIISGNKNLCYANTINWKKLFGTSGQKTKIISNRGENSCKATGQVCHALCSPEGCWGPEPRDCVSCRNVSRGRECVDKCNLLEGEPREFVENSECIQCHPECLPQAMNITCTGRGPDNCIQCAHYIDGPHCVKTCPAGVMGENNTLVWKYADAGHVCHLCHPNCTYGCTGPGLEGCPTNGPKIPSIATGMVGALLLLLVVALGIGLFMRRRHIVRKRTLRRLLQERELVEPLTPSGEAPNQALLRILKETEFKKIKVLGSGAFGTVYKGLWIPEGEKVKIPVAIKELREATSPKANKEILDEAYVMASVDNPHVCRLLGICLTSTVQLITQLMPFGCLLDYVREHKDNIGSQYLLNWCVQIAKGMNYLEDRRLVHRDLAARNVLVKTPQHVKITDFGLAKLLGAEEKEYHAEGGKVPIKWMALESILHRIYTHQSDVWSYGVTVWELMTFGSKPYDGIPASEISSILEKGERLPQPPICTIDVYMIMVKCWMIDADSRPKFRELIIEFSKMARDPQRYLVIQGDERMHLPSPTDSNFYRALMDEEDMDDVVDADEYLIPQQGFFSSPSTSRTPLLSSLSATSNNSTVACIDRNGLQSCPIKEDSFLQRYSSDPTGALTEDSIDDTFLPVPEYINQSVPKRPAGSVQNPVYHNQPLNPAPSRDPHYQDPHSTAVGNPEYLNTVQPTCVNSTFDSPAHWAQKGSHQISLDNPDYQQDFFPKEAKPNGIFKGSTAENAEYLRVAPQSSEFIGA

IC50 [1]: 9.57 nM | Ratio IC50 [2]: > 2490 | IC50 (NCI-H1975 [3]): 2.58 nM
Compound: C#CCN(C)CCN(C)c1cc(OC)c(Nc2nccc(Nc3cn(C)c4ccccc34)n2)cc1NC(=O)C=C
Activity (NCI-H1299 [4]): 6.8% | Activity (NCI-H1299 [5]): 23.8% | Activity (NCI-H1299 [6]): 70.6% | Activity (NCI-H1299 [7]): 5.7% | Activity (NCI-H1299 [8]): 23.7% | Activity (NCI-H1299 [9]): 68.4% | Activity (NCI-H1299 [10]): 24.7% | Activity (NCI-H1975 [11]): 27.3% | Activity (NCI-H1975 [12]): 58.2% | Activity (NCI-H1975 [13]): 17% | Activity (NCI-H1975 [14]): 64.6% | Activity (NCI-H1299 [15]): 93.1% | Activity (NCI-H1299 [16]): 1.05% | Activity (NCI-H1299 [17]): 92.6% | Activity (NCI-H1299 [18]): 0.63% | Activity (NCI-H1299 [19]): 1.01% | Activity (NCI-H1299 [20]): 5.63% | Activity (NCI-H1299 [21]): 0.77% | Activity (NCI-H1299 [22]): 92.1% | Activity (NCI-H1299 [23]): 0.95% | Activity (NCI-H1299 [24]): 6.35% | Activity (NCI-H1975 [25]): 3.09% | Activity (NCI-H1975 [26]): 0.038% | Activity (NCI-H1975 [27]): 3.3% | Activity (NCI-H1975 [28]): 12.2% | Activity (NCI-H1975 [29]): 8.52% | Activity (NCI-H1975 [30]): 45.4% | selectivity ratio (in vitro [31]): 38800 | selectivity ratio (in vitro [32]): 27500
